The values that follow come from patent publication US20060194823A1, “Sulfonamido-macrocycles as Tie2 inhibitors and the salts thereof, a pharmaceutical composition comprising these compounds, the method of preparing and the use thereof” (priority 2004, published 2006).

Broadly, the IC50 is the concentration needed to halve the response being measured.

Bounds are passed on as bounds.

The assay deals with T1, Tie-2-Kinase (Homo sapiens, UniProt Q02763).
T1 construct: made in house
The assay can be described thus: Tie-2-Kinase HTRF-Assay. The assay is classed as biochemical. The conditions noted are these: either in the Tie2 kinase assay or in the Tie2 autophosphorylation ELISA test; read-out: IC50, inhibit Tie2. An excerpt: Tie-2 phosphorylates tyrosine residues of the artificial substrate polyGAT (biotinylated polyGluAlaTyr). Detection of phosphorylated product is achieved specifically by a trimeric detection complex consisting of the phosphorylated substrate, streptavidin-XLent (SA-XLent) which binds to biotin, and Europium Cryptate-labeled anti-phosphotyrosine antibody PT66 which binds to phosphorylated tyrosine. Excitation of Europium fluorescence with 337 nm light results in emission of long-lived light with 620 nm. In case a trimeric detection complex has formed, part of the energy will be transferred to the SA-XLent fluorophore that itself then emits long-lived light of 665 nm (FRET: fluorescence resonance energy transfer). […] Measurement is performed in a Packard Discovery or BMG Rubystar instrument. A-counts (emission at 665 nm) will be divided by B-counts (emission at 620 nm) and multiplicated with a factor of 10000. The resulting numbers are called the “well ratio” of the sample.
• Enzyme: Tie-2-Kinase, in house, aliquots (12×10 mL) stored at −80° C. • Substrate: PolyGAT labeled with Biotin (1000 μg/mL); ClS Bio; # 61GATBLB; • aliquots stored at −20° C. • ATP: Amersham Pharmacia Biotech Inc. # 27-2056-01; 100 mM; stored at −20° C. • Antibody: PT66-Eu Cryptate; CIS Bio; # 61T66KLB; 30 μg/mL; aliquots stored at −20° C. • SA-XLent; CIS Bio; # 611SAXLB; 1000 μg/mL; aliquots stored at −80° C. • Microplates: 384 Well black, SV, Greiner, # 784076 Solutions: Assay Buffer: • 50 mM HEPES (pH 7.0), 25 mM MgCl2, 5 mM MnCl2, 1 mM DTT, 0.5 mM Na3VO4, 0.01% (v/v) NP40, 1× Complete EDTA free Enzyme Working Solution: • Tie-2 stock solution is diluted 1:250 in assay buffer Substrate Working Solution: • PolyGAT (1000 μg/mL; 36.23 μM) is diluted 1:90.6 to 400 nM or 77.3 ng/well, ATP (100 mM) is diluted 1:5000 to 20.0 μM. Both dilutions in assay buffer. Final assay concentrations: poly-GAT: 200 nM or 5.25 μg/mL, ATP: 10 μM (1×Km each). • Detection solution: 50 mM HEPES (pH 7.0), BSA 0.2%, 0.6 M KF, 200 mM EDTA, PT66-Europium Cryptate 2.5 ng/well, SA-XLent Cis Bio 90 ng/well. Assay Steps All Steps at 20° C. • 1. 0.75 μL of compound solution in 30% (v/v) DMSO • 2. add 7 μL of substrate working solution • 3. add 7 μL of enzyme working solution • 4. incubate 75 min (reaction volume: 14.75 μL) • 5. add 8 μL of detection solution • 6. incubate 180 min or over night at 4° C. (total volume: 22.75 μL) • 7. measure HTRF in Packard Discovery or BMG Rubystar instrument (delay 50 μs, integrated time 400 μs) Final Concentrations (in 14.75 μL Reaction Volume): • Enzyme: unknown • polyGAT (1×Km): 200 nM (77.3 ng) • ATP (1×Km): 10 μM • DMSO: 1.5% (v/v) • Buffer conditions: 50 mM HEPES (pH 7.0), 25 mM MgCl2, 5 mM MnCl2, 1 mM DTT, 0.5 mM NaVO4, 0.01% (v/v) NP40, 1× Complete Controls: • C0: uninhibited reaction (DMSO only) • Ci: inhibited reaction with 20 μM Staurosporine Biological Experiment 3: Proliferation Test
A general note: TR-FRET usually uses a lanthanide donor and a delayed reading to cut background.

T1 sequence (Q02763 23-1124): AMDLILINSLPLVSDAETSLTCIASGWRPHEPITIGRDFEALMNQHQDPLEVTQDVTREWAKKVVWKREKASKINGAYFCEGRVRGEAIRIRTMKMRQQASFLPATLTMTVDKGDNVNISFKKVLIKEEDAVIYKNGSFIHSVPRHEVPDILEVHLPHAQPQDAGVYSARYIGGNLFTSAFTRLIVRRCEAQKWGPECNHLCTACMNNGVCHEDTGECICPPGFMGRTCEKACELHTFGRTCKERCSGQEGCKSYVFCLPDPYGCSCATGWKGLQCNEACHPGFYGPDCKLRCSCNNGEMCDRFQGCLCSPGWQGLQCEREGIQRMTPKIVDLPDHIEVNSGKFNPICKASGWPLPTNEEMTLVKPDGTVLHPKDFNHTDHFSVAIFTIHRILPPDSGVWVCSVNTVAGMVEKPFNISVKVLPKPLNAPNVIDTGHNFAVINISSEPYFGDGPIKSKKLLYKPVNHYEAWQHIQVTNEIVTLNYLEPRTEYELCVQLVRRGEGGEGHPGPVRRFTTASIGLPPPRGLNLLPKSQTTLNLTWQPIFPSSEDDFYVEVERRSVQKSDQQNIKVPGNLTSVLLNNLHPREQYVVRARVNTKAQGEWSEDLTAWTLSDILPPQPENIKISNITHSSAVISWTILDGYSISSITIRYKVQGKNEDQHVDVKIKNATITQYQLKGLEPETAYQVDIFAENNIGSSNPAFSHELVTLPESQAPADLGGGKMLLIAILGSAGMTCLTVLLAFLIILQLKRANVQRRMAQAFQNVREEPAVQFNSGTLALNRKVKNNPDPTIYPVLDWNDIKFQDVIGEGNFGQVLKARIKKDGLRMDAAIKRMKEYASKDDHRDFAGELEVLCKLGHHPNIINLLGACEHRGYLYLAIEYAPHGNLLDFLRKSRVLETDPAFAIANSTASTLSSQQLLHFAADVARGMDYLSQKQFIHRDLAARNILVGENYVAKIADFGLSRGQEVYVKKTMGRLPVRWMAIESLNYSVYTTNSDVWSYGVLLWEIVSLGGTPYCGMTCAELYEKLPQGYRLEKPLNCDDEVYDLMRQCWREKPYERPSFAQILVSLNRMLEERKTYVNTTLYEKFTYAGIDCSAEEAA

Consider `O=S1(=O)NCCCNc2nc(ncc2-c2ccc3c(c2)OCO3)Nc2cccc1c2` [Example 1, 1^5-(1,3-benzodioxol-5-yl)-4-thia-2,5,9-triaza-1(2,4) pyrimidina-3(1,3)-benzenacyclonona-phane 4,4-dioxide], for which the IC50 was at most 1000 nM.
Consider `O=C(COc1ccc(-c2cnc3nc2NCCCNS(=O)(=O)c2cccc(c2)N3)cc1)c1ccc(F)cc1` [Example 2, 2-[4-[4,4-dioxo-4λ^6-thia-2,5,9-triaza-1(2,4)-pyrimidina-3(1,3)-benzenacyclo-nonaphan-1^5-yl]phenoxy]-1-(4-fluorophenyl)-ethanone], for which the IC50 was at most 1000 nM.
On to `O=C(COc1ccc(-c2cnc3nc2NCCCNS(=O)(=O)c2cccc(c2)N3)cc1)c1ccccc1` [Example 3, 2-[4-[4,4-dioxo-4λ^6-thia-2,5,9-triaza-1(2,4)-pyrimidina-3(1,3)-benzenacyclo-nonaphan-1^5-yl]phenoxy]-1-phenylethanone], for which the IC50 is at most 1000 nM.
Under `O=C(Nc1ccccc1)Nc1ccc(-c2cnc3nc2NCCCNS(=O)(=O)c2cccc(c2)N3)cc1` [Example 8, N-[4-[4,4-dioxo-4λ^6-thia-2,5,9-triaza-1(2,4)-pyrimidina-3(1,3)-benzena-cyclononaphan-1^5-yl]phenyl]-N′-phenylurea] stands at most 1000 nM; under `O=C(Nc1ccc(-c2cnc3nc2NCCCNS(=O)(=O)c2cccc(c2)N3)cc1)Nc1cccc(C(F)(F)F)c1` [Example 9, N-[4-[4,4-dioxo-4λ^6-thia-2,5,9-triaza-1(2,4)-pyrimidina-3(1,3)-benzena-cyclononaphan-1^5-yl]phenyl]-N′-[3-(trifluoromethyl)-phenyl]urea], at most 1000 nM; under `O=C(Nc1ccc(-c2cnc3nc2NCCCNS(=O)(=O)c2cccc(c2)N3)cc1)Nc1cc(C(F)(F)F)ccc1F` [Example 10, N-[4-[4,4-dioxo-4λ^6-thia-2,5,6-triaza-1(2,4)-pyrimidina-3(1,3)-benzena-cyclononaphan-1^5-yl]phenyl]-N′-[2-fluoro-5-(trifluoromethyl)-phenyl]urea], at most 1000 nM.
As for `COc1ccc(S(=O)(=O)Nc2ccc(-c3cnc4nc3NCCCNS(=O)(=O)c3cccc(c3)N4)cc2)cc1` [Example 23, N-[4-[4,4-dioxo-4λ^6-thia-2,5,9-triaza-1(2,4)-pyrimidina-3(1,3)-benzena-cyclononaphan-1^5-yl]phenyl]-4-methoxybenzene-sulfonamide], the IC50 is at most 1000 nM.
